The target of assay [1] is PmiR (PA0797), wild type (Pseudomonas aeruginosa PAO1). Put plainly: SEC. (SEC sorts molecules by how far they enter the pores of the column.)
The target of assay [2] is T1, PmiR (Pseudomonas aeruginosa, UniProt Q9I5E1).
T1 sequence (Q9I5E1 1-240): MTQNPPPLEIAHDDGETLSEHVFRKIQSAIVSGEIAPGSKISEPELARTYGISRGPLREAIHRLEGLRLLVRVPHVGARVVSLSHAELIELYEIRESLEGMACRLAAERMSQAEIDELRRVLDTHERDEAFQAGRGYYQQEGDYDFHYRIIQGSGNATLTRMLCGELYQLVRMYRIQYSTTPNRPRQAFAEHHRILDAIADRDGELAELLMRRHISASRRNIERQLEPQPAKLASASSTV
The assay can be described thus: ITC. Type of assay: binding.

The target in assay [3] is T2, truncated PmiR protein (amino acids 15 to 232) (Pseudomonas aeruginosa, UniProt Q9I5E1).
T2 sequence (Q9I5E1 15-232): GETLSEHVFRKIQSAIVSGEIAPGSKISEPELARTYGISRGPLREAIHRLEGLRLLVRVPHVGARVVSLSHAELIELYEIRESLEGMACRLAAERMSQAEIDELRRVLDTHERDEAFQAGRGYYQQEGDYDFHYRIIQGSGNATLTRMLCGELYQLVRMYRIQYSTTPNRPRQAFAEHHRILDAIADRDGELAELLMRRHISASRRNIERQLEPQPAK
The assay can be described thus: ITC. Type of assay: binding.

Assay [4] has as its target T3, PrpB (Pseudomonas aeruginosa, UniProt Q9I5E2).
T3 sequence (Q9I5E2 1-298): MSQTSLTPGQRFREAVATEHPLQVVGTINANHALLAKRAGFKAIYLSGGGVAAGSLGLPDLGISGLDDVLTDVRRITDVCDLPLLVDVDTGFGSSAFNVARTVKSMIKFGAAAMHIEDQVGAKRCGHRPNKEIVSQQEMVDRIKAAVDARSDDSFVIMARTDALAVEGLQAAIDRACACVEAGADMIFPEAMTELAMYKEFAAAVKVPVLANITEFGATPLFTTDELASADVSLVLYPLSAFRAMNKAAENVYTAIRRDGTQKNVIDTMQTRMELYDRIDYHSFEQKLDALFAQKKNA
The assay can be described thus: HPLC-UV, A214. Type of assay: biochemical. The conditions noted are these: 1.0 mM; 1 mM tris-HCl pH 7.5.

The term stoichiometry N denotes a count of units in the complex or per binding partner. “PmiR (PA0797), wild type (natural protein)”: in assay [1], the stoichiometry N is 2.

Usually Kd stands for a measure of binding affinity in units of concentration. Read a high Kd as weaker binding. For the molecule `C[C@](O)(C(=O)O)[C@H](CC(=O)O)C(=O)O` (racemic) [MIC], the Kd was determined as 21.8 µM in assay [2] and 62.9 µM in assay [3].

In turn, `O=C(O)C[C@H](C(=O)O)[C@@H](O)C(=O)O` [isocitrate] gave a Kd in assay [2] of 64.1 µM.

Regarding `CC(=O)C(=O)O` [pyruvate], in assay [4], the “HPLC-UV, A214” value was “PrpB, methylisocitrate lyase, was the last but critical enzyme to convert MIC to succinate and pyruvate”.

Values taken from paper PMC9728974 (Science Advances, 2022).
